The record followed here is US12378249B2, “Isoquinoline compounds and uses thereof” (Genentech, Inc., priority 2018, dated 2025).

Sequence of HPK1 (Q92918 whole entry T165E/S171E): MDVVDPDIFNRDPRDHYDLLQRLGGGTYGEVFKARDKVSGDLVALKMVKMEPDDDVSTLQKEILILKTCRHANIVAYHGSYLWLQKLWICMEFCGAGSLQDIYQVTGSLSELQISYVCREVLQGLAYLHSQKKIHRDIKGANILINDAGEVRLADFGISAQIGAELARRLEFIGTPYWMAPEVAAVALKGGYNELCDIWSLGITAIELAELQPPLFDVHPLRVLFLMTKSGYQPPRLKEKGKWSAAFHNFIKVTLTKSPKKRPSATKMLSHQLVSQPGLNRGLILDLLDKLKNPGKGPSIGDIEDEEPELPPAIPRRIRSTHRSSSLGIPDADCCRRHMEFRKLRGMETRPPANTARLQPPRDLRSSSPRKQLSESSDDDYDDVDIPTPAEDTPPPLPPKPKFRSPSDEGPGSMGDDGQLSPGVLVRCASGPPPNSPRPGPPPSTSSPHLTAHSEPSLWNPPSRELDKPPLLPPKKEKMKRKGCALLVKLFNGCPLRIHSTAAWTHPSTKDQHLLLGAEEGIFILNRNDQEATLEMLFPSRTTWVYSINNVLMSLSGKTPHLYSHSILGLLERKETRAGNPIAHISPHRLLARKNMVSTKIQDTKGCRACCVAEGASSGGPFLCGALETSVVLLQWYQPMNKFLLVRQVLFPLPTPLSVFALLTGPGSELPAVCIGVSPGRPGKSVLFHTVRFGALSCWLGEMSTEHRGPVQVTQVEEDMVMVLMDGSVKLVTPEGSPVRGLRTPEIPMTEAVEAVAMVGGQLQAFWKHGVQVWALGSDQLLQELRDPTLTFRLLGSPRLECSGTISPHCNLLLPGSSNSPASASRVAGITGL

For the assay, the target named is HPK1 (Homo sapiens (Human), UniProt Q92918, S171E/T165E). The experiment in a line: HPK1-FL HTRF Enzymatic Assay (HTRF). The assay is classed as biochemical. The conditions noted are these: HPK full length T165E S171E 0.125 nM, ATP 1 mM, Biotin-SLP76 100 nM, read-out: HPK1 Ki (nM), H = HTRF. How it is done:
Exemplary compounds of Formula (I) were tested to assess compound inhibition of HPK-1. The Ki for each exemplary compound was determined
Example B1: HPK1-FL HTRF Enzymatic Assay (“HTRF”)
HPK-FL enzyme phosphorylates Biotin-SLP-76 substrate in the presence of ATP at 1 mM and varying concentrations of test compound. Product is detected by FRET using Eu-anti-pSLP76 Ab and SA-XL665. Also see www.cisbio.com/HTRF for additional HTRF technology information.
• Echo555 compound dispenser • Agilent Bravo • Perkin Elmer Envision Final Assay Conditions:
Materials: • Assay plate: White ProxiPlate 384 F (PerkinElmer cat #6008289) • Kinase: HPK full length double mutant • Substrate: Biotin-SLP76 • ATP: 100 mM ATP • BSG: 2% BSG • DMSO: DMSO (Sigma cat #34869-100ML) • Reaction Buffer: H2O/50 mM HEPES, pH 7.5/10 mM MgCl2/2 mM TCEP/0.01% Brij-35/0.01% BSG • Detection mix:Eu-anti-pSLP76/SA-XL665 (Cisbio, #610SAXAC) Assay Procedure Ki determination:
To a 384 well Proxiplate with 80 nL compound or DMSO spotted on was added 4 μl/well kinase mix. The mixture was preincubated for 30 minutes and then 4 μl/well substrate mix was added. The solution was incubated for 60 min and then 4 μl/well detection mix was added. The solution was incubated for another 60 min. The plates were then loaded onto a Perkin Elmer Envision and the TR-FRET signal was measured at 615 and 665 nm. A ratio of […] was used to calculate the % activity at each concentration of compound.
As a reminder, the Ki is the equilibrium dissociation constant of an inhibitor or competing ligand from its target. Regarding `Cc1c(-c2cc3cc(Nc4cc5n(n4)CC(=O)N(C(C)C)C[C@H]5O)ncc3cc2F)cnc2c1NCCO2` (single isomer, unassigned) [Compound 141a], the inhibitory constant (Ki) stood at 0.033 nM.

Turning to `Cc1cc(C2CCCCO2)ncc1-c1cc2cc(Nc3cc4n(n3)CC(=O)N(C)CC4)ncc2cc1F` (racemic) [Compound 218, (+/-)-2-((7-fluoro-6-(4-methyl-6-(tetrahydro-2H-pyran-2-yl)pyridin-3-yl)isoquinolin-3-yl)amino)-6-methyl-5,6-dihydro-4H-pyrazolo[1,5-d][1,4]diazepin-7(8H)-one], the inhibition constant (Ki) turned out to be 9 nM. With `Cc1c(-c2cc3cc(Nc4cc5n(n4)CC(=O)N(C(C)CO)CC5)ncc3cc2F)cnc2c1NCCO2` (single isomer, unassigned) [Compound 148b] the figure was 0.013 nM. As to `COCCN1CCc2cc(Nc3cc4cc(-c5cncc(N)c5C)c(F)cc4cn3)nn2CC1=O` [Compound 156, 2-((6-(5-amino-4-methylpyridin-3-yl)-7-fluoroisoquinolin-3-yl)amino)-6-(2-methoxyethyl)-5,6-dihydro-4H-pyrazolo[1,5-d][1,4]diazepin-7(8H)-one], the inhibitory constant (Ki) stood at 0.017 nM. As for `CN1CCc2cc(Nc3cc4cc(-c5cncc(N)c5C(F)(F)F)c(F)cc4cn3)nn2CC1=O` [Compound 227, 2-((6-(5-amino-4-(trifluoromethyl)pyridin-3-yl)-7-fluoroisoquinolin-3-yl)amino)-6-methyl-5,6-dihydro-4H-pyrazolo[1,5-d][1,4]diazepin-7(8H)-one], the inhibition constant (Ki) stood at 0.29 nM.

As for `Cc1c(-c2cc3cc(Nc4ccn([C@@H](C)C#N)n4)ncc3cc2F)cnc2c1NCCO2` (single isomer, unassigned) [Compound 109b, 2-(3-((7-fluoro-6-(8-methyl-2,3-dihydro-1H-pyrido[2,3-b][1,4]oxazin-7-yl)isoquinolin-3-yl)amino)-1H-pyrazol-1-yl)propanenitrile], the Ki came to 1.19 nM.

Take `Cc1c(-c2cc3cc(Nc4cc5n(n4)CC(=O)NCC5)ncc3cc2F)cnc2c1NCCC2=O` [Compound 196, 2-((7-fluoro-6-(4-methyl-8-oxo-5,6,7,8-tetrahydro-1,5-naphthyridin-3-yl)isoquinolin-3-yl)amino)-5,6-dihydro-4H-pyrazolo[1,5-d][1,4]diazepin-7(8H)-one]: the inhibitory constant (Ki) worked out at 0.1 nM. With `Cc1c(-c2cc3cc(Nc4cc5n(n4)CC(=O)N(C)CC5)ncc3cc2F)cnc2c1NCCS2(=O)=O` [Compound 177, 2-((7-fluoro-6-(8-methyl-4,4-dioxido-2,3-dihydro-1H-pyrido[2,3-b][1,4]thiazin-7-yl)isoquinolin-3-yl)amino)-6-methyl-5,6-dihydro-4H-pyrazolo[1,5-d][1,4]diazepin-7(8H)-one] the figure was 0.277 nM; with `Cc1c(N)cncc1-c1cc2cc(Nc3cc4n(n3)CC(=O)N(C(C)C#N)CC4)ncc2cc1F` (single isomer, unassigned) [Compound 154b], 0.032 nM. For `Cc1c(-c2cc3cc(Nc4cc5n(n4)CC(=O)N(C)CC54CC4)ncc3cc2F)cnc2c1NCC[C@]2(C)O` (single isomer, unassigned) [Compound 229a] the value was 0.09 nM; for `Cc1c(CC#N)cncc1-c1cc(F)c2cnc(Nc3cc4n(n3)CC(=O)NCC4)cc2c1` [Compound 238, 2-(5-(8-fluoro-3-((7-oxo-5,6,7,8-tetrahydro-4H-pyrazolo[1,5-d][1,4]diazepin-2-yl)amino)isoquinolin-6-yl)-4-methylpyridin-3-yl)acetonitrile], 0.076 nM. With `Cc1c(CN)cncc1-c1cc2cc(Nc3cc4n(n3)CC(=O)N(C)CC4)ncc2cc1F` [Compound 211, 2-((6-(5-(aminomethyl)-4-methylpyridin-3-yl)-7-fluoroisoquinolin-3-yl)amino)-6-methyl-5,6-dihydro-4H-pyrazolo[1,5-d][1,4]diazepin-7(8H)-one] the figure was 19 nM; with `CN1CCc2cc(Nc3cc4cc(-c5cncc6c5CCC6O)c(F)cc4cn3)nn2CC1=O` (racemic) [Compound 214, (+/-)-2-((7-fluoro-6-(7-hydroxy-6,7-dihydro-5H-cyclopenta[c]pyridin-4-yl)isoquinolin-3-yl)amino)-6-methyl-5,6-dihydro-4H-pyrazolo[1,5-d][1,4]diazepin-7(8H)-one], 9 nM. As for `CN1CCc2cc(Nc3cc4cc(-c5cccc6c5CCNC6)c(F)cc4cn3)nn2CC1=O` [Compound 200, 2-((7′-fluoro-1,2,3,4-tetrahydro-[5,6′-biisoquinolin]-3′-yl)amino)-6-methyl-5,6-dihydro-4H-pyrazolo[1,5-d][1,4]diazepin-7(8H)-one], the inhibitory constant (Ki) was found to be 127 nM. For `Cc1c(-c2cc(F)c3cnc(Nc4cc5n(n4)CC(=O)N(C)CC54CC4)cc3c2)cnc2c1NCC[C@H]2O` (single isomer, unassigned) [Compound 237b] the value was 0.319 nM; for `Cc1c(-c2cc3cc(Nc4cc5n(n4)CC(=O)N(CCN4CCOCC4)CC5)ncc3cc2F)cnc2c1NCCO2` [Compound 132, 2-[[7-fluoro-6-(8-methyl-2,3-dihydro-1H-pyrido[2,3-b][1,4]oxazin-7-yl)-3-isoquinolyl]amino]-6-(2-morpholinoethyl)-5,8-dihydro-4H-pyrazolo[1,5-d][1,4]diazepin-7-one], 0.02 nM; for `Cc1c(-c2cc3cc(Nc4cc5n(n4)CC(=O)N(C)CC5)ncc3cc2F)cnc2c1N(C)CCO2` [Compound 162, 2-((6-(1,8-dimethyl-2,3-dihydro-1H-pyrido[2,3-b][1,4]oxazin-7-yl)-7-fluoroisoquinolin-3-yl)amino)-6-methyl-5,6-dihydro-4H-pyrazolo[1,5-d][1,4]diazepin-7(8H)-one], 0.43 nM. For the compound `Cc1c(N)cncc1-c1cc2cc(Nc3cc4n(n3)CC(=O)N(CCN3CCOCC3)CC4)ncc2cc1F` [Compound 136, 2-((6-(5-amino-4-methylpyridin-3-yl)-7-fluoroisoquinolin-3-yl)amino)-6-(2-morpholinoethyl)-5,6-dihydro-4H-pyrazolo[1,5-d][1,4]diazepin-7(8H)-one], the inhibitory constant (Ki) amounted to 0.028 nM. Turning to `Cc1c(-c2cc3cc(Nc4cc5n(n4)CC(=O)NCC5)ncc3cc2F)cnc2c1NCC(F)(F)O2` [Compound 176, 2-((6-(3,3-difluoro-8-methyl-2,3-dihydro-1H-pyrido[2,3-b][1,4]oxazin-7-yl)-7-fluoroisoquinolin-3-yl)amino)-5,6-dihydro-4H-pyrazolo[1,5-d][1,4]diazepin-7(8H)-one], the inhibitory constant (Ki) was found to be 0.161 nM.

For `Cc1c(N)cncc1-c1cc(F)c2cnc(Nc3cc4n(n3)Cc3nccn3CC4)cc2c1` [Compound 168, N-(6-(5-amino-4-methylpyridin-3-yl)-8-fluoroisoquinolin-3-yl)-5,6-dihydro-1I1H-imidazo[1,2-a]pyrazolo[1,5-d][1,4]diazepin-8-amine], the Ki is 0.028 nM.

As for `Cc1cc(CN)ccc1-c1cc2cc(Nc3cc4n(n3)CC(=O)N(C)CC4)ncc2cc1F` [Compound 213, 2-((6-(4-(aminomethyl)-2-methylphenyl)-7-fluoroisoquinolin-3-yl)amino)-6-methyl-5,6-dihydro-4H-pyrazolo[1,5-d][1,4]diazepin-7(8H)-one], the Ki amounted to 25 nM. For `Cc1c(-c2cc3cc(Nc4cc5n(n4)CC(=O)N(C)CC5)ncc3cc2F)cnc(=O)n1C` [Compound 203, 2-((6-(1,6-dimethyl-2-oxo-1,2-dihydropyrimidin-5-yl)-7-fluoroisoquinolin-3-yl)amino)-6-methyl-5,6-dihydro-4H-pyrazolo[1,5-d][1,4]diazepin-7(8H)-one], the inhibitory constant (Ki) came to 97 nM.
